Results on one compound are retold here after publication PMC4386773 (International Journal of Nanomedicine, 2015).

Molecules are shown by their SMILES. Converted amounts (≈) assume the structure as drawn. Marks after values point to notes of the source that are not given here.

The solubility is the dissolved amount per volume that the medium holds.

Data set [1] is described as follows: Nonparticulate PBPK modeling of SNX-2112 disposition in rats. It counts as in vivo. The following applies: estimated by nonparticulate PBPK modeling.
The conditions of data set [2]: after oral administration; cited from earlier work.
Data set [3] in a line: Solubility of SNX-2112 in water and oil. The format is physicochemical.

In the case of `CC1(C)CC(=O)c2c(C(F)(F)F)nn(-c3ccc(C(N)=O)c(N[C@H]4CC[C@H](O)CC4)c3)c2C1` [SNX-2112], the “CLH (hepatic clearance)” value in data set [1] is 0.0246 ^a L/h. In addition, the oral bioavailability result in data set [2] is given as “hardly bioavailable”. Moreover, the solubility in data set [3] (soybean oil, oil or lipid) is 5 µg/mL (≈ 10.8 µM); in data set [3] (water), 8 µg/mL (≈ 17.2 µM).
